The values below come from patent publication US4761403A, “Lipoxygenase inhibiting compounds” (Abbott Laboratories, priority 1986, dated 1988).

Common to all, as to assay type: biochemical
Assay [1] has as its target T1, 12-lipoxygenase (Homo sapiens, UniProt P18054).
T1 construct: 12-lipoxygenase obtained from human platelets; from tissue; host or cells: human platelets
T1 sequence (P18054 1-663): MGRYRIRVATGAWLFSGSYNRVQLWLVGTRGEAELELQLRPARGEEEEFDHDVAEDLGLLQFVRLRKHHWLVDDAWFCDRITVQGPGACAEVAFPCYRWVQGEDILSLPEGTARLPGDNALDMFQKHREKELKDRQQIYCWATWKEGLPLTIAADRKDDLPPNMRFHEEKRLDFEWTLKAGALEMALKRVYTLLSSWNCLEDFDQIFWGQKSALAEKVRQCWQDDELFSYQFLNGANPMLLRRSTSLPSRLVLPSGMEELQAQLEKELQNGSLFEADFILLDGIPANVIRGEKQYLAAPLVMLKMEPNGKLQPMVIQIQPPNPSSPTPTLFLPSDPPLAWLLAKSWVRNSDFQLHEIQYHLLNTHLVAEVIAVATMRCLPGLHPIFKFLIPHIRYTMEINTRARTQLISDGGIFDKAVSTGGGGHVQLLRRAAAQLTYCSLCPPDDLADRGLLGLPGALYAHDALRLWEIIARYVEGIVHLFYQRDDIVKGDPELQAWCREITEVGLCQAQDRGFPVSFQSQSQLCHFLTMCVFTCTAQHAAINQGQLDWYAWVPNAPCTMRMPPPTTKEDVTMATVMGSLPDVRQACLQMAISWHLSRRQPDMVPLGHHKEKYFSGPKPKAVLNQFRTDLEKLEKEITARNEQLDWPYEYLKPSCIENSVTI
The assay is described as follows: 12-lipoxygenase inhibition, enzyme obtained from human platelets. Particulars: read-out: Percent Inhibition, 12-Lipoxygenase. Here is the method:
(§1) The compounds of this invention are potent inhibitors of 5-, 12-, and 15-lipoxygenases. An assay to determine 5-lipoxygenase activity was performed in incubations containing various concentrations of the test compound and the 20,000 g supernatant from 7.5 million homogenized RBL-1 cells. Reactions were initiated by addition of radiolabeled arachidonic acid and terminated by acidification and ether extraction. Reaction products were separated from nonconverted substrate by thin layer chromatography and measured by liquid scintillation spectroscopy. Inhibition of 5-lipoxygenase activity was calculated as the 50% intercept from linear regression analysis of percentage inhibition versus log concentration plots.
(§2) Inhibitory activities of the compounds of this invention against 12- and 15-lipoxygenase can be determined in the foregoing assay in which 12-lipoxygenase obtained from human platelets, or 15-lipoxygenase obtained from soybean, is substituted for the […] containing cell supernatant fraction.

Assay [2] deals with T2, 5-lipoxygenase (Rattus norvegicus, UniProt P12527).
T2 construct: 20,000 g supernatant from 7.5 million homogenized RBL-1 cells; endogenous in cells; host or cells: RBL-1 cells, 20,000 g supernatant of homogenate
T2 sequence (P12527 1-673): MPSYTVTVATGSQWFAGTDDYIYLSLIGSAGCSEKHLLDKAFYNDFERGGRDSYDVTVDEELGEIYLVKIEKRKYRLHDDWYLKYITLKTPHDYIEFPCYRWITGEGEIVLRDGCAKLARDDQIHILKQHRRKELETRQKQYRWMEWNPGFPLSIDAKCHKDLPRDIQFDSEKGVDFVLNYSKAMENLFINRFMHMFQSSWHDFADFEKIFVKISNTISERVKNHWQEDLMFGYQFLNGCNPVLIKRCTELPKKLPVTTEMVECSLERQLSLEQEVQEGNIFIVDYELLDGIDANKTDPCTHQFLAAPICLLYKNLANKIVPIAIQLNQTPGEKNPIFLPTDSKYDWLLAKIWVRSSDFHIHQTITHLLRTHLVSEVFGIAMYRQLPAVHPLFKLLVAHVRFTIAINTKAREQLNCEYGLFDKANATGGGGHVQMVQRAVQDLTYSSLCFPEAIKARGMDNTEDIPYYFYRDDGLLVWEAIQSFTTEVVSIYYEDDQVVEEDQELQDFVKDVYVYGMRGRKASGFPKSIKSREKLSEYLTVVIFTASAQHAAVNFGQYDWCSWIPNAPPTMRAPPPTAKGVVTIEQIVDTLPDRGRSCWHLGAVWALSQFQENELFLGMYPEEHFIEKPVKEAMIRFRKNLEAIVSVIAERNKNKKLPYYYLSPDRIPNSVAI
In words: 5-lipoxygenase inhibition, 20,000 g supernatant from homogenized RBL-1 cells, radiolabeled arachidonic acid. Particulars: for IC50: 5-lipoxygenase, RBL-1 supernatant, 50% intercept from linear regression of % inhibition vs log concentration. Here is the method:
as §1

Assay [3] concerns the target T3, 15-lipoxygenase (Glycine max, UniProt P08170).
T3 construct: 15-lipoxygenase obtained from soybean; from tissue; host or cells: soybean
T3 sequence (P08170 1-839): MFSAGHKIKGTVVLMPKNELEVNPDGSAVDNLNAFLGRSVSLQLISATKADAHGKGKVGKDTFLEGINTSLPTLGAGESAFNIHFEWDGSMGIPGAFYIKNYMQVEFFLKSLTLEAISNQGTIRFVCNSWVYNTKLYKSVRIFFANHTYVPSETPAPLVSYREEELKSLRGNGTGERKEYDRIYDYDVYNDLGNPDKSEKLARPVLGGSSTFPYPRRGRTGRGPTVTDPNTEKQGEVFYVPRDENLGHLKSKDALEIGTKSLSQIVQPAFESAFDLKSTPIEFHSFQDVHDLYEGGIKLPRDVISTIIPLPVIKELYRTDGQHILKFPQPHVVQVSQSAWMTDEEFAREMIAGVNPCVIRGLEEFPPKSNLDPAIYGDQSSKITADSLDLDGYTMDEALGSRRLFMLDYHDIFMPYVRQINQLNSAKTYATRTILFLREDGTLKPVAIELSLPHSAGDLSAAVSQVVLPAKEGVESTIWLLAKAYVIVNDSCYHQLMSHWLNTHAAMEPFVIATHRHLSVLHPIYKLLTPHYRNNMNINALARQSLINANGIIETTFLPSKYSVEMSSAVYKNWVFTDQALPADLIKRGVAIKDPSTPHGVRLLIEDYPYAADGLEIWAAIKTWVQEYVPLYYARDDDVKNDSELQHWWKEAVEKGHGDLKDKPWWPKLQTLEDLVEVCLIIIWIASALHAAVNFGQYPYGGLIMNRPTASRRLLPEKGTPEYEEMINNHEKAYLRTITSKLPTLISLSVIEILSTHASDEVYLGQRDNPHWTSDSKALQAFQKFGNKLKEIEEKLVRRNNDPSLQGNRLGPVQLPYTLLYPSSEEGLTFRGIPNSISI
In words: 15-lipoxygenase inhibition, enzyme obtained from soybean. The note with it: read-out: Percent Inhibition, 15-lipoxygenase. Here is the method: as §1, §2

The structures appear in SMILES notation.

One may read the inhibition as how much of the control response was suppressed. Broadly, the IC50 is the concentration that gives 50% inhibition.

Regarding `O=c1ccc2cc(-c3ccccc3)ccc2n1O` [Example 12, 6-Phenyl-1-hydroxyquinol-2(1H)-one], in assay [1], the inhibition at 10 µM was 97% and the inhibition at 100 µM amounted to 98%. This molecule registered a half-inhibitory concentration (IC50) in assay [2] of 340 nM. For the same molecule, in assay [3], the inhibition at 10 µM was 97% and the inhibition at 100 µM stood at 100%.
In the case of `Cc1ccc2ccc(=O)n(O)c2c1` [Example 13, 7-Methyl-1-hydroxyquinol-2(1H)-one], the inhibition at 10 µM stood at 94% in assay [1] and 61% in assay [3]. In addition, the inhibition at 100 µM in assay [1] and in assay [3] was 97% throughout. This molecule also came in with a concentration for half-maximal inhibition (IC50) in assay [2] of 980 nM.
In the case of `O=c1c2ccccc2c2ccccc2n1O` [Example 15, 3,4-Benzo-1-hydroxyquinol-2(1H)-one], in assay [1], the inhibition at 10 µM turned out to be 96% and the inhibition at 100 µM amounted to 98%. Also, in assay [2], 2500 nM corresponded to half-maximal inhibition (IC50). In assay [3], the inhibition at 10 µM was 13% and the inhibition at 100 µM was 60%.
Turning to `O=c1c2ccccc2c(Br)cn1O` [Example 29, 4-Bromo-2-hydroxyquinol-1(2H)-one], in assay [1], the inhibition at 10 µM was 89% and the inhibition at 100 µM is 96%. In assay [2], this molecule displayed an IC50 of 2600 nM. In assay [3], the inhibition at 10 µM worked out at 43% and the inhibition at 100 µM was determined as 94%.
On to `O=c1c2ccccc2c([N+](=O)[O-])cn1O` [Example 30, 4-Nitro-2-hydroxyquinol-1(2H)-one], for which, in assay [1], the inhibition at 10 µM was found to be 54% and the inhibition at 100 µM is 83%. Also, in assay [2] (@ 30 uM, read-out: percentage inhibition of 5-lipoxygenase), the inhibition at 30 µM amounted to 32%. Besides, in assay [3], the inhibition at 10 µM amounted to 10% and the inhibition at 100 µM is 12%.
Turning to `O=c1c2ccccc2c(-c2ccccc2)cn1O` [Example 31, 4-Phenyl-2-hydroxyquinol-1(2H)-one], the inhibition at 10 µM came out at 95% in assay [1] and 14% in assay [3]. Further, the inhibition at 100 µM in assay [1] worked out at 99%; in assay [3], 50%. Further, the IC50 in assay [2] came to 450 nM.
For `COc1ccc2ccn(O)c(=O)c2c1` [Example 34] the same measures were 90%, 20%, 98%, 45% and 2500 nM.
